Measured values published in EP0745595A1, “3-(3-Aryloxyphenyl)-1-(substituted methyl)-s-triazine-2,4,6-oxo or thiotrione herbicidal agents” (American Cyanamid Company, priority 1995, dated 1996).

How the values were obtained:
Format in all cases: in vivo
CHENOPODIUM ALBUM, L. = experiment: Postemergence herbicidal evaluation, CHEAL (Lambsquarters, Common)
Method in brief: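 Seedlings of common lambsquarters (Chenopodium album) were raised in jiffy flats for roughly two weeks, then sprayed postemergence through a nozzle at 40 psi with test compound dispersed in 50/50 acetone/water containing 0.5% TWEEN®20 surfactant. Plants were kept on greenhouse benches under standard care and rated visually on a 0-9 scale versus controls.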

[1] = test system: GLYCINE MAX(L) MERR. CV. WILLIAMS; experiment: Postemergence herbicidal evaluation, GLXMAW (Soybean, Williams); parameters: key to GLXMAW rating / Herbicidal effect rating, GLXMAW / GLXMAW: 0-9 visual rating scale vs untreated control
Method in brief: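 Soybean seedlings (Williams) were raised in jiffy flats for roughly two weeks, then sprayed postemergence through a nozzle at 40 psi with test compound dispersed in 50/50 acetone/water containing 0.5% TWEEN®20. Treated plants were kept on greenhouse benches under normal care and visually rated on a 0-9 scale four to five weeks later.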

[2] = test system: ABUTILON THEOPHRASTI, MEDIC.; experiment: Preemergence herbicidal evaluation, ABUTH (Velvetleaf); details: rated four to five weeks after treatment
Method in brief: (§1)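 Greenhouse preemergence test; treated soil cups received compound in aqueous acetone (about 0.125 to 0.50 kg/ha) right after sowing and were assessed visually 4-5 weeks later on a 0-9 scale compared with control plants.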

[3] = test system: AMBROSIA ARTEMISIIFOLIA, L.; experiment: Preemergence herbicidal evaluation, AMBEL (Ragweed, Common); details: rated four to five weeks after treatment
Method in brief: as §1

IPOMOEA SPP. = experiment: Preemergence herbicidal evaluation, IPOSS (Morningglory spp.); details: rated four to five weeks after treatment
Method in brief: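 Seeds of morningglory (Ipomoea spp.) were mixed with potting soil and sown on roughly one inch of soil in pint cups for a preemergence herbicide test. The cups were put on greenhouse benches, watered, and maintained by standard greenhouse practice. Four to five weeks after treatment each cup was scored visually on a 0-9 scale against a control.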

GALIUM APARINE = experiment: Preemergence herbicidal evaluation, GALAP (Galium); details: rated four to five weeks after treatment
Method in brief: as §1

[4] = test system: ECHINOCHLOA CRUS-GALLI, (L) BEAU; experiment: Preemergence herbicidal evaluation, ECHCG (Barnyardgrass); details: rated four to five weeks after treatment
Method in brief: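 Barnyardgrass seeds were mixed with potting soil and planted on about one inch of soil in pint cups for preemergence testing. Treated cups were kept on greenhouse benches, watered and maintained by standard greenhouse practice. After four to five weeks, each cup was visually rated on a 0-9 scale against an untreated control.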

[5] = test system: SETARIA VIRIDIS, (L) BEAU; experiment: Preemergence herbicidal evaluation, SETVI (Foxtail, Green); details: rated four to five weeks after treatment
Source text: Results of herbicide evaluation are expressed on a rating scale (0-9). The scale is based upon a visual observation of plant stand, vigor, malformation, size, chlorosis and overall plant appearance as compared with a control.
The preemergence herbicidal activity of the test compounds of the present invention is exemplified by the following tests in which the seeds of a variety of monocotyledonous and dicotyledonous plants are separately mixed with potting soil and planted on top of approximately one inch of soil in separate pint cups. […] The treated cups are then placed on greenhouse benches, watered and cared for in accordance with conventional greenhouse procedures. From four to five weeks after treatment, the tests are terminated and each cup is examined and rated according to the rating system provided in Example 40.
The compounds evaluated are reported by compound number given in Example 40.

[6] = test system: GLYCINE MAX(L) MERR. CV. WILLIAMS; experiment: Preemergence herbicidal evaluation, GLXMAW (Soybean, Williams); details: rated four to five weeks after treatment
Method in brief: as §1

[7] = test system: ORYZA SATIVA, L. TEBONNET; experiment: Preemergence herbicidal evaluation, ORYSAT (Rice, Tebonnet); details: rated four to five weeks after treatment
Method in brief: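 Seeds of rice (Oryza sativa, Tebonnet) were mixed with potting soil and sown on about one inch of soil in pint cups, then treated preemergence. Cups sat on greenhouse benches, watered and tended by standard greenhouse practice. Four to five weeks after treatment, plants were visually scored on a 0-9 scale relative to a control.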

[8] = test system: TRITICUM AESTIVUM, CV. APOLLO; experiment: Preemergence herbicidal evaluation, TRZAWO (Wheat, Winter, CV. APOLLO); details: rated four to five weeks after treatment
Method in brief: as §1

ZEA MAYS L. = experiment: Preemergence herbicidal evaluation, ZEAMX (Corn, Field); details: rated four to five weeks after treatment
Method in brief: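 Corn (Zea mays) seeds were mixed with potting soil and planted on about one inch of soil in pint cups, then treated preemergence. Cups were kept on greenhouse benches, watered and maintained conventionally, and after four to five weeks were visually rated on a 0-9 scale versus an untreated control.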

[9] = test system: CYPERUS SEROTINUS, ROTTB.; experiment: Preemergence weed control under flooded paddy conditions, CYPSE (Flatsedge); details: preemergence, 3-4 weeks after treatment
Method in brief: (§2)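 Seeds or propagules were planted 0.5 cm deep in silt loam, with flood water held at 1.5 to 3 cm. Compound in 50/50 aqueous/acetone was pipetted into the flood water at about 0.5, 0.25, 0.125 and 0.063 kg/ha. Injury was rated visually on a 0-9 scale against a control 3-4 weeks after treatment.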

SAGITTARIA PYGMAEA, L. = experiment: Preemergence weed control under flooded paddy conditions, SAGPY (Arrowhead (Pygmaea)); details: preemergence, 3-4 weeks after treatment
Method in brief: as §2

[10] = test system: ORYZA SATIVA, L. TEBONNET; experiment: Rice tolerance to post-transplant applications under flooded paddy conditions, ORYSAT (Rice, Tebonnet); details: post-transplant rice, 3-4 weeks after treatment
Method in brief: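 Two ten-day-old Tebonnet rice seedlings transplanted into silt loam, flooded 1.5–3 cm; three days later the water surface treated with compounds in acetone/water at about 0.5, 0.25, 0.125 and 0.063 kg/ha. Visual 0–9 injury rating versus control after 3–4 weeks in greenhouse.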

COC(=O)Cn1c(=O)n(C)c(=O)n(-c2cc(Oc3ccc([S+](C)[O-])cc3Cl)ccc2[N+](=O)[O-])c1=O (stereo not drawn) [Compound 36]
CHEAL rating (CHENOPODIUM ALBUM, L.; Rate 0.125 kg/ha): 8.0 | CHEAL rating (CHENOPODIUM ALBUM, L.; Rate 0.250 kg/ha): 8.0 | CHEAL rating (CHENOPODIUM ALBUM, L.; Rate 0.500 kg/ha): 8.0 | GLXMAW rating ([1]; Rate 0.125 kg/ha): 5.0 | GLXMAW rating ([1]; Rate 0.250 kg/ha): 5.0 | GLXMAW rating ([1]; Rate 0.500 kg/ha): 5.0 | ABUTH herbicidal rating ([2]; Rate 0.125 kg/ha): 0.0 | ABUTH herbicidal rating ([2]; Rate 0.250 kg/ha): 0.0 | ABUTH herbicidal rating ([2]; Rate 0.500 kg/ha): 0.0 | AMBEL herbicidal rating ([3]; Rate 0.125 kg/ha): 0.0 | AMBEL herbicidal rating ([3]; Rate 0.250 kg/ha): 0.0 | AMBEL herbicidal rating ([3]; Rate 0.500 kg/ha): 0.0 | IPOSS herbicidal rating (IPOMOEA SPP.; Rate 0.125 kg/ha): 0.0 | IPOSS herbicidal rating (IPOMOEA SPP.; Rate 0.250 kg/ha): 0.0 | IPOSS herbicidal rating (IPOMOEA SPP.; Rate 0.500 kg/ha): 0.0 | GALAP herbicidal rating (GALIUM APARINE; Rate 0.125 kg/ha): 0.0 | GALAP herbicidal rating (GALIUM APARINE; Rate 0.250 kg/ha): 0.0 | GALAP herbicidal rating (GALIUM APARINE; Rate 0.500 kg/ha): 0.0 | ECHCG herbicidal rating ([4]; Rate 0.125 kg/ha): 0.0 | ECHCG herbicidal rating ([4]; Rate 0.250 kg/ha): 0.0 | ECHCG herbicidal rating ([4]; Rate 0.500 kg/ha): 0.0 | SETVI herbicidal rating ([5]; Rate 0.125 kg/ha): 0.0 | SETVI herbicidal rating ([5]; Rate 0.250 kg/ha): 0.0 | SETVI herbicidal rating ([5]; Rate 0.500 kg/ha): 0.0 | GLXMAW herbicidal rating ([6]; Rate 0.125 kg/ha): 0.0 | GLXMAW herbicidal rating ([6]; Rate 0.250 kg/ha): 0.0 | GLXMAW herbicidal rating ([6]; Rate 0.500 kg/ha): 0.0 | ORYSAT herbicidal rating ([7]; Rate 0.125 kg/ha): 0.0 | ORYSAT herbicidal rating ([7]; Rate 0.250 kg/ha): 0.0 | ORYSAT herbicidal rating ([7]; Rate 0.500 kg/ha): 0.0 | TRZAWO herbicidal rating ([8]; Rate 0.125 kg/ha): 0.0 | TRZAWO herbicidal rating ([8]; Rate 0.250 kg/ha): 0.0 | TRZAWO herbicidal rating ([8]; Rate 0.500 kg/ha): 0.0 | ZEAMX herbicidal rating (ZEA MAYS L.; Rate 0.125 kg/ha): 0.0 | ZEAMX herbicidal rating (ZEA MAYS L.; Rate 0.250 kg/ha): 0.0 | ZEAMX herbicidal rating (ZEA MAYS L.; Rate 0.500 kg/ha): 0.0 | Herbicidal effect rating, CYPSE ([9]; 0.063 kg/ha): 0.0 | Herbicidal effect rating, CYPSE ([9]; 0.125 kg/ha): 0.0 | Herbicidal effect rating, CYPSE ([9]; 0.250 kg/ha): 0.0 | Herbicidal effect rating, CYPSE ([9]; 0.500 kg/ha): 0.0 | Herbicidal effect rating, SAGPY (SAGITTARIA PYGMAEA, L.; 0.063 kg/ha): 0.0 | Herbicidal effect rating, SAGPY (SAGITTARIA PYGMAEA, L.; 0.125 kg/ha): 0.0 | Herbicidal effect rating, SAGPY (SAGITTARIA PYGMAEA, L.; 0.250 kg/ha): 0.0 | Herbicidal effect rating, SAGPY (SAGITTARIA PYGMAEA, L.; 0.500 kg/ha): 0.0 | Herbicidal effect rating, ORYSAT ([10]; 0.063 kg/ha): 0.0 | Herbicidal effect rating, ORYSAT ([10]; 0.125 kg/ha): 0.0 | Herbicidal effect rating, ORYSAT ([10]; 0.250 kg/ha): 0.0 | Herbicidal effect rating, ORYSAT ([10]; 0.500 kg/ha): 0.0
